According to publication PMC8508710, “Biochemical Characterization of 13-Lipoxygenases of Arabidopsis thaliana” (International Journal of Molecular Sciences, 2021):
Like-named read-outs stand apart in the source and are kept apart here. Values belong to the compound of their own block, whether it stands above or below them.

Key:
[1] = target: T1, LOX4 (Arabidopsis thaliana, UniProt Q9FNX8); experiment: Intrinsic fluorescence of LOX4; assay type: binding; set-up: made in house; host or cells: E. coli Nico21(DE3), pET15b; details: 156 µM chemical; λExc = 280 nm; control 98.1 ± 3.9
T1 sequence (Q9FNX8 71-926): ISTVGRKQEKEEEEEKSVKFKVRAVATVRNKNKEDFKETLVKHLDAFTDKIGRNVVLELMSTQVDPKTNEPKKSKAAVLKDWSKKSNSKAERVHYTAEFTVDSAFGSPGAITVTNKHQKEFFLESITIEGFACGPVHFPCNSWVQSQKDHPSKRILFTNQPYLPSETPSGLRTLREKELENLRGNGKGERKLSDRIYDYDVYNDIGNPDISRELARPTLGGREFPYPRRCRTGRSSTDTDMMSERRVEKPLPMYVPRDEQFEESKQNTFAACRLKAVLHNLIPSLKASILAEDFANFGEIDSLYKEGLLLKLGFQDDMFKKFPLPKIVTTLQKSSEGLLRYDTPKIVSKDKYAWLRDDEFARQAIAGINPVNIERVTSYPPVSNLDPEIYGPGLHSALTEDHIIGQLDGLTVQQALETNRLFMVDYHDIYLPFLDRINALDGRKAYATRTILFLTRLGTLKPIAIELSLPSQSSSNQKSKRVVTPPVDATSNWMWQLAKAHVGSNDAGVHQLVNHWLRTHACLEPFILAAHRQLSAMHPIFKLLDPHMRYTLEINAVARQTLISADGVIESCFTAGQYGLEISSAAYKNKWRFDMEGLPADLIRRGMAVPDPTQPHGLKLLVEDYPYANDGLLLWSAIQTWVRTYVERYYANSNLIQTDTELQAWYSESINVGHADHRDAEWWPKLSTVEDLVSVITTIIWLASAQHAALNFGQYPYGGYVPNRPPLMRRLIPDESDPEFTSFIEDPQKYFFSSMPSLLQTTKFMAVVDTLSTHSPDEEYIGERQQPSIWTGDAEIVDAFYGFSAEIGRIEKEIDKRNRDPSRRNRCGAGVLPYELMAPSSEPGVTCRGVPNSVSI
Method: (§1) Figure 5 Analysis of the interaction of 12-OPDA and MJ with LOX4. […] LOX4 (0.22 µg/µL) was incubated with compounds at indicated concentrations for 10 min at 30 °C, and residual LOX activity was measured spectrophotometrically by the injection of 3 µL incubation mixture into 123 µL LeA (4.8 µM in 50 mM Tris-HCl, pH 7.2). […] (B) Intrinsic fluorescence of LOX4 incubated with 12-OPDA, MJ and solvent (control). Here, 120 µL LOX4 (0.2 µg/µL) was mixed with 15 µL chemical (1.4 mM in 50 mM K-Pi, pH 8.0) or solvent (control) and analyzed for intrinsic fluorescence emission after excitation at λExc = 280 nm. Mean graphs are shown (n = 4).

[2] = target: T1, LOX4; experiment: LOX4 activity, oxygen electrode (polarography); assay type: biochemical; set-up: made in house; host or cells: E. coli Nico21(DE3), pET15b; details: enzyme incubated with 280 µM chemical (1/10 vol of 2.8 mM), injected into 30 µM LeA, 50 mM Tris-HCl pH 7.2; vs solvent control; read-out: Polarography Relative Activity (%) LOX4
[3] = target: T2, LOX3 (Arabidopsis thaliana, UniProt Q9LNR3); experiment: Intrinsic fluorescence of LOX3; assay type: binding; set-up: made in house; host or cells: E. coli Nico21(DE3), pET15b; details: as Figure 5B; for Emission maximum: control 330.8±1.6, in nm (unit assumed); for Relative fluorescence intensity at emission maximum: λExc = 280 nm, control 134.5±3.9
T2 sequence (Q9LNR3 71-919): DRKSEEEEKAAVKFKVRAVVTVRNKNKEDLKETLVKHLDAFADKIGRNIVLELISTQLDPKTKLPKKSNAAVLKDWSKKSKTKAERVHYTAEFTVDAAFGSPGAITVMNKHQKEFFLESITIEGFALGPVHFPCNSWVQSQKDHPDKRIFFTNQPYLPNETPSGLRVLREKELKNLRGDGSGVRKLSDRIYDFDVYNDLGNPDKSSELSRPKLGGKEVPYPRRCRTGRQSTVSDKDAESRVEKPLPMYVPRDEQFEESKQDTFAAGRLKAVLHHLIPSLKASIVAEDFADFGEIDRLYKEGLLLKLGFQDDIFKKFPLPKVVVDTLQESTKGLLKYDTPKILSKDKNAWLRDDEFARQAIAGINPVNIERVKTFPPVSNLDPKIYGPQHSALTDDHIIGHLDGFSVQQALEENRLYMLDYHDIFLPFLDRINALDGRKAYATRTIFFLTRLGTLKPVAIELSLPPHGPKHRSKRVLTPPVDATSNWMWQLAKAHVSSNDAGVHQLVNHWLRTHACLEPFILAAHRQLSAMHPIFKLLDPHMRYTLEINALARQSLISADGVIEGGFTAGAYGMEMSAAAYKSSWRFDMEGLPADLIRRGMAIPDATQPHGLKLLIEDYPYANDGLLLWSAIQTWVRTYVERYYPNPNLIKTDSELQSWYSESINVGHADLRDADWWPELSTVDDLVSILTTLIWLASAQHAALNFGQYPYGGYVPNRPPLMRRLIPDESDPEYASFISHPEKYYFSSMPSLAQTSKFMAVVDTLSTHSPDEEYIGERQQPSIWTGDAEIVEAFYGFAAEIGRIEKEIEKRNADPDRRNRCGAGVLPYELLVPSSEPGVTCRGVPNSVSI
Method: as §1
Int. J. Mol. Sci. 2021, 22, x FOR PEER REVIEW 11 of 17
Figure S7. Interaction and activity studies of LOX2, LOX3 and LOX6. (A) LOX2, LOX3 and LOX6 activities in presence of increasing amounts of MJ and 12-OPDA. Analysis was performed as described for IC50 determination of LOX4 (see Figure 5A). 100% activity […]
(B) Intrinsic fluorescence of LOX2 and LOX3 incubated with 12-OPDA, MJ and solvent control. Analysis was performed as in Figure 5B. […]

[4] = target: T1, LOX4; experiment: LOX4 activity, oxygen electrode (polarography); assay type: biochemical; set-up: made in house; host or cells: E. coli Nico21(DE3), pET15b; details: for Relative Activity (%) LOX4: 1 mM metal salt, LeA 30 µM in 20 mM HEPES pH 8.0, oxygen consumption vs control without metal
[5] = tested on: AOC; set-up: method as in PMID 12223729; details: cited from earlier work
[6] = 12.2 µg LOX4 + 1.3 mM GSH prior to 140 µM 12-OPDA
[7] = doubled LOX4 concentration + 1.3 mM GSH + 140 µM 12-OPDA

Structure (SMILES): CCC=CCC1C(=O)C=CC1CCCCCCCC(=O)O (stereo not drawn) [12-OPDA, cis-(+)-12-oxophytodienoic acid]
Relative fluorescence emission at 333 nm [1]: 86.2 ± 3.9
activity at 280 µM [2]: 21 ± 5%
Emission maximum [3]: 333.2±0.3
Relative fluorescence intensity at emission maximum [3]: 115.2±1.3
Residual LOX4 activity ([4]; 12.2 µg LOX4 + 140 µM 12-OPDA alone): 29.6%
Oxygen consumption (residual LOX4 activity) ([4]; 12.2 µg LOX4 + 140 µM 12-OPDA alone, control 9.8 ± 0.1): 2.9 ± 0.1 nmol/mL/min
Oxygen consumption (residual LOX4 activity) [4, 6]: 3.6 ± 0.1 nmol/mL/min
Residual LOX4 activity [4, 6]: 36.7%
Residual LOX4 activity ([4]; doubled LOX4 concentration + 140 µM 12-OPDA): 34%
Oxygen consumption (residual LOX4 activity) ([4]; doubled LOX4 concentration + 140 µM 12-OPDA, control 19.7 ± 0.1): 6.7 ± 0.1 nmol/mL/min
Oxygen consumption (residual LOX4 activity) [4, 7]: 9.0 ± 0.1 nmol/mL/min
Residual LOX4 activity [4, 7]: 45.7%
Oxygen consumption (residual LOX4 activity) ([4]; doubled LOX4 concentration + 2.6 mM GSH + 140 µM 12-OPDA): 8.5 ± 0.6 nmol/mL/min
Sensitivity of AOC ([5]; 0.5 mM): insensitivity

Structure (SMILES): CC/C=C\CC1C(=O)CCC1CC(=O)OC (centres unmarked) [MJ, methyl jasmonate]
Relative fluorescence emission at 333 nm [1]: 98.0 ± 2.4
activity at 280 µM [2]: 95 ± 3%
Emission maximum [3]: 331.7±0.8
Relative fluorescence intensity at emission maximum [3]: 126.4±3.0

Structure (SMILES): O=S(=O)([O-])[O-].[Cd+2] [CdSO4]
Relative Activity (%) LOX4 [4]: no activity

Structure (SMILES): O=C(O)/C=C/CCCCCCCCC(=O)O [TA, traumatic acid]
activity at 280 µM [2]: 100 ± 9%

Structure (SMILES): O=C(O)c1ccccc1O [SA, salicylic acid]
activity at 280 µM [2]: 101 ± 4%

More lines, main results first:

Increase of LOX4 activity in comparison to control ([4]; 1 mM cation, LeA 30 µM, pH 8.0): 6%
Relative Activity (%) LOX4 [4]: 106 ± 3%
Structure (SMILES): [Cl-].[Cl-].[Mg+2] [MgCl2]
Sensitivity of AOC ([5]; 1.0 mM): insensitivity

Relative Activity (%) LOX4 [4]: 100 ± 4%
Structure (SMILES): [Ca+2].[Cl-].[Cl-] [CaCl2]
Sensitivity of AOC ([5]; 1.0 mM): insensitivity
